Assay results as given in patent US10966426B2, “Herbicidal compositions comprising phenylpyrimidines” (BASF SE, priority 2016, dated 2021).
Where two headings read alike, the source gives them in different places.

Tests used:
Type in all cases: in vivo
Ambrosia elatior [1] = test: greenhouse pre-emergence treatment, AMBEL; details: Ambrosia artemisiifolia, 480 h, 20 DAT, AMBEL
In short: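 Pre-emergence spray of compounds, alone or as combinations formulated as 10% emulsion concentrate in water, directly after sowing in loamy sand (~3.0% humus); pots hooded until rooting, kept at 10-25° C or 20-35° C per species for 2 to 4 weeks. Damage scored 0-100 (100 = no emergence/complete destruction); Colby expected value E=X+Y−(X·Y/100).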

Poa annua = test: greenhouse post-emergence treatment, POAAN; details: Poa annua
In short: (§1)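 Mixtures formulated as 10% by weight emulsion concentrates, applied in water post-emergence to plants of 3–15 cm. Cool-season species held at 10-25° C., warm-season at 20-35° C.; rating 0 (no damage) to 100 (destruction).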

Papaver rhoeas = test: greenhouse post-emergence treatment, PAPRH; details: Papaver rhoeas; for pest or weed control at 125 g/ha / pest or weed control at 250 g/ha / pest or weed control at 500 g/ha: read-out: % activity
In short: (§2)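 Visual herbicidal effect (0–100) recorded over a 2 to 4 week test period after foliar treatment at plant heights of 3 to 15 cm. Expected combination effects derived by the Colby formula from single-component effects X and Y.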

Avena fatua = test: greenhouse post-emergence treatment, AVEFA; details: Avena fatua; for pest or weed control at 125 g/ha: read-out: % activity
In short: (§3)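 Scoring ran on a 0-100 scale, 100 meaning no emergence or destroyed above-ground parts, over a 2-4 week period; Colby formula E=X+Y−(X·Y/100) gave expected mixture effects. Species grew separately in loamy sand (about 3.0% humus) at 10-25° C or 20-35° C, with water as solvent.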

Matricaria chamomilla = test: greenhouse post-emergence treatment, MATCH; details: MATCH
In short: as §2

Lolium multiflorum = test: greenhouse post-emergence treatment, LOLMU; details: Lolium multiflorum, LOLMU
In short: as §3

Polygonum convolvulus = test: greenhouse post-emergence treatment, POLCO; details: Fallopia convolvulus, 504 h, read-out: % activity
In short: as §2

Setaria viridis = test: greenhouse post-emergence treatment, SETVI; details: Setaria viridis
In short: as §3

Bromus sterilis = test: greenhouse post-emergence treatment, BROST; details: Bromus sterilis
In short: as §3

Brachiaria decumbens = test: greenhouse post-emergence treatment, BRADC; details: for % activity: cinmethylin solo (EC 750 g/l)
In short: as §1

Ambrosia elatior [2] = test: greenhouse post-emergence treatment, AMBEL; details: AMBEL
In short: as §1

Alopecurus myosuroides = test: greenhouse post-emergence treatment, ALOMY; details: Alopecurus myosuroides, 480 h, 20 DAT, ALOMY
In short: as §3

[3] = cinmethylin solo (EC 750 g/l), 125 gai/ha, 21 DAT
[4] = Urochloa decumbens, 504 h, read-out: % activity

Cc1ccccc1CO[C@@H]1C[C@@]2(C(C)C)CC[C@]1(C)O2 (racemic) [cinmethylin]
percent weed control (herbicidal activity, 0-100 scale) at 62.5 g/ha (Ambrosia elatior [1]; 62.5 gai/ha (EC 750 g/l), Table X1, read-out: % activity, solo application): 0%
percent weed control (herbicidal activity, 0-100 scale) at 125 g/ha (Ambrosia elatior [1]; 125 gai/ha (EC 750 g/l), Table X1, read-out: % activity, solo application): 0%
pest or weed control at 62.5 g/ha (Poa annua; 504 h, read-out: % activity): 70%
pest or weed control at 62.5 g/ha (Papaver rhoeas; 504 h, PAPRH, 21 DAT, solo cinmethylin (EC 750 g/l) 62.5 gai/ha): 0%
pest or weed control at 125 g/ha (Papaver rhoeas; 504 h): 20%
pest or weed control at 250 g/ha (Papaver rhoeas; 504 h): 20%
pest or weed control at 500 g/ha (Papaver rhoeas; 504 h): 55%
pest or weed control at 125 g/ha (Avena fatua; 504 h): 10%
pest or weed control at 125 g/ha (Matricaria chamomilla; Matricaria chamomilla, 504 h, 21 DAT, solo cinmethylin (EC 750 g/l) 125 gai/ha): 0%
% activity (Matricaria chamomilla; [3]): 0%
pest or weed control at 62.5 g/ha (Lolium multiflorum; 504 h, 21 DAT, solo cinmethylin (EC 750 g/l) 62.5 gai/ha, read-out: % activity): 0%
pest or weed control at 125 g/ha (Lolium multiflorum; 504 h, 21 DAT, solo cinmethylin (EC 750 g/l) 125 gai/ha, read-out: % activity): 30%
pest or weed control at 62.5 g/ha (Polygonum convolvulus): 0%
pest or weed control at 125 g/ha (Polygonum convolvulus): 0%
pest or weed control at 250 g/ha (Polygonum convolvulus): 0%
pest or weed control at 500 g/ha (Polygonum convolvulus): 0%
pest or weed control at 125 g/ha (Setaria viridis; 504 h, SETVI, 21 DAT, solo cinmethylin (EC 750 g/l) 125 gai/ha): 55%
pest or weed control at 62.5 g/ha (Setaria viridis; 504 h, read-out: % activity): 20%
pest or weed control at 500 g/ha (Setaria viridis; 504 h, read-out: % activity): 85%
pest or weed control at 62.5 g/ha (Bromus sterilis; 504 h, read-out: % activity): 10%
pest or weed control at 250 g/ha (Bromus sterilis; 504 h, read-out: % activity): 25%
pest or weed control at 125 g/ha (Brachiaria decumbens; Urochloa decumbens, 504 h, BRADC, 21 DAT, solo cinmethylin (EC 750 g/l) 125 gai/ha, read-out: % activity): 0%
pest or weed control at 500 g/ha (Brachiaria decumbens; Urochloa decumbens, 504 h, BRADC, 21 DAT, solo cinmethylin (EC 750 g/l) 500 gai/ha): 20%
pest or weed control at 62.5 g/ha (Brachiaria decumbens; [4]): 0%
pest or weed control at 250 g/ha (Brachiaria decumbens; [4]): 10%
% activity (Brachiaria decumbens; 125 gai/ha, 21 DAT, BRADC): 0%
% activity (Brachiaria decumbens; 500 gai/ha, 21 DAT, BRADC): 20%
% activity (Ambrosia elatior [2]; cinmethylin solo (EC 750 g/l), 62.5 gai/ha, 21 DAT): 0%
% activity (Ambrosia elatior [2]; [3]): 0%

CC(C)N1C(=O)c2ccccc2NS1(=O)=O [bentazon]
pest or weed control at 60 g/ha (Poa annua; 480 h, POAAN, bentazon solo 60 gai/ha, 20 DAT): 0%
inhibition at 120 g/ha (Alopecurus myosuroides; 120 gai/ha (SL 480 g/l), Table X3, read-out: % activity, solo application): 0%
inhibition at 240 g/ha (Alopecurus myosuroides; 240 gai/ha (SL 480 g/l), Table X3, read-out: % activity, solo application): 0%
pest or weed control at 60 g/ha (Alopecurus myosuroides; bentazon solo 60 gai/ha): 0%
pest or weed control at 240 g/ha (Alopecurus myosuroides; bentazon solo 240 gai/ha): 0%
inhibition at 120 g/ha (Papaver rhoeas; 480 h, 120 gai/ha (SL 480 g/l), 20 DAT, PAPRH, Table X3, read-out: % activity, solo application): 0%
pest or weed control at 30 g/ha (Papaver rhoeas; 480 h, PAPRH, bentazon solo 30 gai/ha, 20 DAT): 0%
pest or weed control at 60 g/ha (Papaver rhoeas; 480 h, PAPRH, bentazon solo 60 gai/ha, 20 DAT): 0%
pest or weed control at 120 g/ha (Papaver rhoeas; 480 h, PAPRH, bentazon solo 120 gai/ha, 20 DAT): 0%
inhibition at 30 g/ha (Matricaria chamomilla; Matricaria chamomilla, 480 h, 30 gai/ha (SL 480 g/l), 20 DAT, Table X3, read-out: % activity, solo application): 20%
inhibition at 60 g/ha (Matricaria chamomilla; Matricaria chamomilla, 480 h, 60 gai/ha (SL 480 g/l), 20 DAT, Table X3, read-out: % activity, solo application): 30%
pest or weed control at 30 g/ha (Matricaria chamomilla; Matricaria chamomilla, 480 h, bentazon solo 30 gai/ha, 20 DAT): 0%
pest or weed control at 60 g/ha (Matricaria chamomilla; Matricaria chamomilla, 480 h, bentazon solo 60 gai/ha, 20 DAT): 0%
pest or weed control at 120 g/ha (Matricaria chamomilla; Matricaria chamomilla, 480 h, bentazon solo 120 gai/ha, 20 DAT): 0%
inhibition at 60 g/ha (Setaria viridis; 480 h, 60 gai/ha (SL 480 g/l), 20 DAT, SETVI, Table X3, read-out: % activity, solo application): 0%
inhibition at 240 g/ha (Setaria viridis; 480 h, 240 gai/ha (SL 480 g/l), 20 DAT, SETVI, Table X3, read-out: % activity, solo application): 30%
inhibition at 60 g/ha (Bromus sterilis; 480 h, 60 gai/ha (SL 480 g/l), 20 DAT, BROST, Table X3, read-out: % activity, solo application): 0%
pest or weed control at 30 g/ha (Bromus sterilis; 480 h, BROST, bentazon solo 30 gai/ha, 20 DAT): 0%
pest or weed control at 60 g/ha (Bromus sterilis; 480 h, BROST, bentazon solo 60 gai/ha, 20 DAT): 0%
pest or weed control at 120 g/ha (Bromus sterilis; 480 h, BROST, bentazon solo 120 gai/ha, 20 DAT): 0%
pest or weed control at 240 g/ha (Bromus sterilis; 480 h, BROST, bentazon solo 240 gai/ha, 20 DAT): 0%
inhibition at 30 g/ha (Brachiaria decumbens; Urochloa decumbens, 480 h, 30 gai/ha (SL 480 g/l), 20 DAT, BRADC, Table X3, read-out: % activity, solo application): 0%
inhibition at 60 g/ha (Brachiaria decumbens; Urochloa decumbens, 480 h, 60 gai/ha (SL 480 g/l), 20 DAT, BRADC, Table X3, read-out: % activity, solo application): 0%
inhibition at 120 g/ha (Brachiaria decumbens; Urochloa decumbens, 480 h, 120 gai/ha (SL 480 g/l), 20 DAT, BRADC, Table X3, read-out: % activity, solo application): 0%
pest or weed control at 30 g/ha (Brachiaria decumbens; Urochloa decumbens, 480 h, BRADC, bentazon solo 30 gai/ha, 20 DAT): 0%
pest or weed control at 60 g/ha (Brachiaria decumbens; Urochloa decumbens, 480 h, BRADC, bentazon solo 60 gai/ha, 20 DAT): 0%
pest or weed control at 240 g/ha (Brachiaria decumbens; Urochloa decumbens, 480 h, BRADC, bentazon solo 240 gai/ha, 20 DAT): 20%
% activity (Ambrosia elatior [2]; bentazon solo 30 gai/ha, 20 DAT): 60%
% activity (Ambrosia elatior [2]; bentazon solo 60 gai/ha, 20 DAT): 60%

Cc1ccc(NC(=O)N(C)C)cc1Cl [chlorotoluron]
pest or weed control at 125 g/ha (Ambrosia elatior [1]; chlorotoluron solo 125 gai/ha): 0%
pest or weed control at 500 g/ha (Ambrosia elatior [1]; chlorotoluron solo 500 gai/ha): 40%
pest or weed control at 125 g/ha (Alopecurus myosuroides; chlorotoluron solo 125 gai/ha, read-out: % activity): 30%
pest or weed control at 250 g/ha (Alopecurus myosuroides; chlorotoluron solo 250 gai/ha, read-out: % activity): 40%
pest or weed control at 500 g/ha (Alopecurus myosuroides; chlorotoluron solo 500 gai/ha): 65%
pest or weed control at 62.5 g/ha (Papaver rhoeas; 480 h, PAPRH, chlorotoluron solo 62.5 gai/ha, 20 DAT): 0%
pest or weed control at 125 g/ha (Papaver rhoeas; 480 h, PAPRH, chlorotoluron solo 125 gai/ha, 20 DAT): 0%
pest or weed control at 250 g/ha (Papaver rhoeas; 480 h, PAPRH, chlorotoluron solo 250 gai/ha, 20 DAT): 20%
pest or weed control at 500 g/ha (Papaver rhoeas; 480 h, PAPRH, chlorotoluron solo 500 gai/ha, 20 DAT): 25%
pest or weed control at 125 g/ha (Avena fatua; 480 h, AVEFA, chlorotoluron solo 125 gai/ha, 20 DAT): 0%
pest or weed control at 250 g/ha (Avena fatua; 480 h, AVEFA, chlorotoluron solo 250 gai/ha, 20 DAT): 40%
pest or weed control at 500 g/ha (Avena fatua; 480 h, AVEFA, chlorotoluron solo 500 gai/ha, 20 DAT): 70%
pest or weed control at 125 g/ha (Matricaria chamomilla; Matricaria chamomilla, 480 h, chlorotoluron solo 125 gai/ha, 20 DAT): 50%
pest or weed control at 500 g/ha (Lolium multiflorum; 480 h, chlorotoluron solo 500 gai/ha, 20 DAT): 80%
pest or weed control at 62.5 g/ha (Bromus sterilis; 480 h, BROST, chlorotoluron solo 62.5 gai/ha, 20 DAT, read-out: % activity): 0%
pest or weed control at 125 g/ha (Bromus sterilis; 480 h, BROST, chlorotoluron solo 125 gai/ha, 20 DAT, read-out: % activity): 0%
